Patent US9393193B2, “Compositions for controlling heartworm infestation” (CEVA SANTA ANIMALE, priority 2010, dated 2016)

Legend:
[1] = 14-week oral, cited from earlier work
[2] = estimated from reports from non recommended use; cited from earlier work
[3] = beagle dogs, cited from earlier work
Dirofilaria = assay: Effective plasma rate of ivermectin established by the applicant; format: in vivo
Excerpt: Thus, the formulations according to the present invention provide a long term protection, e.g., at least 6 months for the collar, strip collar, or medallion formulation against infections caused by parasites.

Dirofilaria larvae = conditions: cited from earlier work

## ivermectin
[1]; 2.0 mg/kg bw group, four dogs
  Severe findings, dogs killed prior to the end of the study: tremors, ataxia, anorexia and dehydration
[1]; 1.0 and 2.0 mg/kg bw, beagle dogs
  Findings observed: mydriasis and slight weight loss
[1]; beagle dogs
  No Observable Effect Level (NOEL): 0.5 mg/kg bw
[2]
  Share of collie dogs highly sensitive to ivermectin: Approximately 30%
[3]; oral 0.5 and 2.0 mg/kg bw
  Time course of H2B1a concentration in plasma: reached steady-state after about three weeks
[3]; oral 0.5 vs 2.0 mg/kg bw
  Average increase in plasma levels on a four-fold increase in the dose: eight-fold increase
Dirofilaria
  Effective rate of ivermectin in the plasma: around 0.1 ng/mL
Dirofilaria larvae; Cunningham C P et al., Am. J. Vet. Res., 2006
  Effective rate of ivermectin in the plasma: ≥ 0.2 ng/mL
Dirofilaria larvae; ivermectin per se at 6 mcg/kg
  Effect on one month aged Dirofilaria larvae: able to kill efficiency one month aged Dirofilaria larvae
